Assay results from article PMC3600326, “Design, Synthesis, and Evaluation of New Tripeptides as COX-2 Inhibitors” (Journal of Amino Acids, 2013).
Residues, ends and D or L forms follow the SMILES beside them.

Key:
hCOX-1 = target: T1, hCOX-1 (Homo sapiens, UniProt P23219); test: hCOX activity, TMPD oxidation with AA as substrate, COX-1 from human platelet microsomes; type: biochemical; details: means ± SEM from five experiments; *** = no active at 500 μM
T1 construct: COX-1 from human platelet microsomes; from tissue; host or cells: human platelets (microsomes) from donor buffy coat
Protocol: Washed human platelets were prepared from blood anticoagulated with citrate-phosphate-dextrose, which was obtained from Centro de Transfusion de Galicia (Santiago de Compostela, Spain).
The upper layer containing platelets (platelet-rich plasma) was removed and centrifuged at 1000 g for 18 min. The resulting platelet pellet was recovered, resuspended with washing buffer, and centrifuged again at 1000 g for 15 min. Finally, the platelet pellet from this step was resuspended in a modified Tyrode-HEPES buffer (HEPES 10 mM; NaCl 140 mM; KCl 3 mM; MgCl2 0.5 mM; NaHCO3 5 mM; glucose 10 mM; pH 7.4) to afford a cell density of 3–3.5·10^8 platelet/mL. The calcium concentration in the extracellular medium was 2 mM [13].
(§1) The potential effects of the test drugs on total hCOX activity (bis-dioxygenase and peroxidase reactions) were investigated by measuring their effects on the oxidation of N,N,N′,N′-tetramethyl-p-phenylenediamine (TMPD) to […], using AA as common substrate for both hCOX-1 and hCOX-2, microsomal COX-2 prepared from insect cells (Sf21 cells) infected with recombinant baculovirus containing cDNA inserts for hCOX-2 (Sigma Aldrich Química S.A., Alcobendas, Spain), and COX-1 from human platelet microsomes (obtained as described in the above paragraph since, unlike hCOX-2, hCOX-1 is not available commercially).
(§2) Results shown in Table 3 are expressed as means ± SEM from five experiments. Means were compared by one-way analysis of variance (ANOVA) followed by Dunnett's post-hoc test.
(§3) This regression was performed using the data obtained with 4–6 different concentrations of each compound assayed, which inhibited the enzymatic activity of COX control isoform between 20 and 80%.

hCOX-2 = target: T2, hCOX-2 (Homo sapiens, UniProt P35354); test: hCOX activity, TMPD oxidation with AA as substrate, microsomal recombinant hCOX-2 from Sf21 insect cells; type: biochemical; details: for IC50: means ± SEM from five experiments, *** = no active at 500 μM, read-out: COX-2 (IC50); for Ratio, index of selectivity SI = [IC50(COX-2)]/[IC50(COX-1)]: COX-2 over COX-1, bounds use the highest concentration tested
T2 construct: purchased Sigma Aldrich Química S.A., Alcobendas, Spain; host or cells: Sf21 insect cells infected with recombinant baculovirus
T2 sequence (P35354 18-604): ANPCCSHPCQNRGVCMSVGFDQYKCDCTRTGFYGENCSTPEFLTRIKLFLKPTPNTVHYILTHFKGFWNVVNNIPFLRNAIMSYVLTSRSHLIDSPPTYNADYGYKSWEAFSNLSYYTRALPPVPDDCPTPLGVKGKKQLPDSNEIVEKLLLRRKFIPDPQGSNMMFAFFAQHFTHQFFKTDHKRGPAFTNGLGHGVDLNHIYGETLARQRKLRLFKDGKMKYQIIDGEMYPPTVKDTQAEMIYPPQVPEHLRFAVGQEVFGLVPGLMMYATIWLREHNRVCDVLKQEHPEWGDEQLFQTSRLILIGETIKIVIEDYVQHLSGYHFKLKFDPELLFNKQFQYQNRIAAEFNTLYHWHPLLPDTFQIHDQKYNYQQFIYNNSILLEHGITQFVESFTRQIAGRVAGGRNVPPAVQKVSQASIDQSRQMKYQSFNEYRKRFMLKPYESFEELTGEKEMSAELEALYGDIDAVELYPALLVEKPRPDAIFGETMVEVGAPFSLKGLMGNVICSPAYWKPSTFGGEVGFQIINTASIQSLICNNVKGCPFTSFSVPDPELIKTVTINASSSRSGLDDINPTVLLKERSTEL
Source text: as §1, §2, §3

COX-2 = system: COX-2; parameters: method as in PMID 17640617; details: ELISA test; cited from earlier work

T1 sequence (P23219 24-599): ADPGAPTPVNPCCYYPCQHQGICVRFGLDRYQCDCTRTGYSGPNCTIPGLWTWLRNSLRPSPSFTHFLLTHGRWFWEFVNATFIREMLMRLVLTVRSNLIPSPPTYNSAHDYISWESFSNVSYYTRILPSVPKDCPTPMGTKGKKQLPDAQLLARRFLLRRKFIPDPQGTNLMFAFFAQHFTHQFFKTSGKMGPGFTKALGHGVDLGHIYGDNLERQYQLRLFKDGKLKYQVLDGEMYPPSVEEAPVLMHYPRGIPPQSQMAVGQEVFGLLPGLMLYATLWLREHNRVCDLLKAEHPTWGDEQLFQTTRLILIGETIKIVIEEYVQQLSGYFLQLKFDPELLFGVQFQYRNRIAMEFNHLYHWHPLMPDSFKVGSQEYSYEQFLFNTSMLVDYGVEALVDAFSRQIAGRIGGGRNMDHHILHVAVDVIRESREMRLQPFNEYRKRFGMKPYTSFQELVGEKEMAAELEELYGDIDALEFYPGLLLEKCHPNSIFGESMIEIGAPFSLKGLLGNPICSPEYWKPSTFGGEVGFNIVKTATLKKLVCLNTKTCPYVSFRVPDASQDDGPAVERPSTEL

IC50 (hCOX-1)	IC50 (hCOX-2)	Ratio, index of selectivity SI = [IC50(COX-2)]/[IC50(COX-1)] (hCOX-2)	Compound	inhibition of COX-2 activity (COX-2)
93.8 ± 6.55 µM	> 500 µM	–	COc1ccc(-c2nc(C(=O)N3CCN(C)CC3)sc2-c2ccc(OC)cc2)cc1 [FR122047, reference compound]	–
150 ± 2.34 µM	94 ± 2.59 µM	0.6255	CSCC[C@H](NC(=O)CN)C(=O)N[C@@H](CC(=O)O)C(=O)O [Peptide S1, Gly-Met-Asp] (H-Gly-Met-Asp-OH)	–
143 ± 2.57 µM	121 ± 2.33 µM	0.8443	C[C@H](NC(=O)[C@H](CCCNC(=N)N)NC(=O)[C@@H](N)CCC(=O)O)C(=O)O [Peptide S2, ERA] (H-Glu-Arg-Ala-OH)	–
152 ± 5.18 µM	94.9 ± 2.12 µM	0.6225	NCC(=O)N[C@@H](Cc1c[nH]cn1)C(=O)N[C@@H](CCC(=O)O)C(=O)O [Peptide S3, Gly-His-Glu] (H-Gly-His-Glu-OH)	–
99.3 ± 1.14 µM	80.6 ± 2.14 µM	0.8111	N=C(N)NCCC[C@H](NC(=O)[C@H](CCC(=O)O)NC(=O)CN)C(=O)O [Peptide S4, GER] (H-Gly-Glu-Arg-OH)	–
161 ± 2.57 µM	100 ± 2.33 µM	0.6195	N=C(N)NCCC[C@H](NC(=O)[C@@H](N)CC(=O)O)C(=O)N[C@@H](CS)C(=O)O [Peptide S5, DRC] (H-Asp-Arg-Cys-OH)	–
102 ± 1.14 µM	91.2 ± 2.41 µM	0.8914	C[C@H](N)C(=O)N[C@@H](CCCNC(=N)N)C(=O)N[C@@H](C)C(=O)O [Peptide S6, ARA] (H-Ala-Arg-Ala-OH)	–
100 ± 2.19 µM	88.2 ± 3.01 µM	0.8792	N=C(N)NCCC[C@H](NC(=O)[C@H](CCC(=O)O)NC(=O)[C@@H]1CCCN1)C(=O)O [Peptide S7, PER] (H-Pro-Glu-Arg-OH)	–
122 ± 3.78 µM	91.7 ± 2.98 µM	0.7484	CC[C@H](C)[C@H](NC(=O)[C@H](Cc1c[nH]cn1)NC(=O)[C@@H](N)CCCCN)C(=O)O [Peptide S8, KHI] (H-Lys-His-Ile-OH)	–
221.6 ± 1.04 µM	68.3 ± 5.43 µM	–	C[C@H](N)C(=O)N[C@@H](CCC(=O)O)C(=O)N[C@@H](CCCNC(=N)N)C(=O)O [Peptide S9, AER] (H-Ala-Glu-Arg-OH)	–
99.1 ± 1.55 µM	79.2 ± 2.15 µM	0.7991	C[C@H](N)C(=O)NCC(=O)N[C@@H](CCCNC(=N)N)C(=O)O [Peptide S10, AGR] (H-Ala-Gly-Arg-OH)	–
–	–	–	WCS	more than 85%
